In patent US11641858B2, “Agricultural chemicals” (Redag Crop Protection Ltd, priority 2016, dated 2023) one finds EC50 and inhibition of growth data, which are given here for 2 compounds.

The subject of one assay is Phytophthora cinnamomi. Description: Amended agar assay (potato dextrose agar), reduction in colony growth. As to conditions: descending test concentrations, 5-fold dilutions typically down to 0.032 ppm, read-out: Phytophthora cinnamomi (EC50). It is filed as cell-based. The procedure: (§1) Testing was carried out on potato dextrose agar (PDA) amended with each compound at test concentrations of 20, 4 and 0.8, 0.16 and 0.032 ppm. Amended agar at each test concentration was poured into three replicate 9 cm petri dishes. Each replicate dish was inoculated in the centre with a 5 mm agar plug taken from the leading edge of a culture aged between 2 and 7 days old; the age of the culture was dependant on the growth rate of the pathogen being tested. The test pathogens were Pythium ultimum and Phytophthora cinnamomi. Plates were incubated at 18° C. and the diameter of each colony measured before growth on the fastest growing plate reached the plate edge. This varied between 2 and 7 days depending on the growth rate of test pathogens. The % reduction in colony growth compared to the control was calculated for each test concentration and pathogen combination.
(§2) The results are shown in Table 1 in which * represents an average control of up to 50% at said dosage; ** represents an average control of 50% or greater but less than 80% at said dosage; and *** represents an average control of 80% or greater at said dosage.
(§3) A primary screen was also conducted for a number of other compounds of the invention. The screen was conducted at 20 ppm and the results are provided in Table 2, in which D represents no control detected at this concentration; C represents up to 50% control; B from 50 to 99% control; and A represents a control of greater than 99%.
(§4) Alternatively, or in addition, the same assay was conducted at descending test concentrations with 5-fold dilutions typically down to 0.032 ppm, and an EC50 (the concentration at which 50% control would be achieved) was determined. The results are provided in Table 1 in which G represents an EC50 above 20 ppm, F represents an EC50 of 2-20 ppm and E represents and EC50 less than 2 ppm.

The test system of the next assay is Pythium ultimum. Described as above. It is filed as cell-based. As to conditions: Globisporangium ultimum. The procedure:
as §1, §2, §3, §4

Consider `Cc1cccnc1-n1c(OCc2cccc(NC(=O)C(F)(F)Oc3ccccc3)n2)nc2ncccc21` [Example 66], for which the EC50 (commonly the concentration at which the effect is half-maximal) in the assay on Phytophthora cinnamomi is > 20 µg/mL. For the same compound, the inhibition of growth at 20 ppm in the assay with Pythium ultimum (Pythium ultimum, primary screen at 20 ppm, read-out: % control at 20 ppm) lay in the range of 50 to 99%.
As to `O=C(Nc1cccc(COc2[nH]c3ccccc3c2-c2ncncc2Cl)n1)C(F)(F)Oc1ccccc1` [Example 69, N-(6-(((3-(5-Chloropyrimidin-4-yl)-1H-indol-2-yl)oxy)methyl)pyridin-2-yl)-2,2-difluoro-2-phenoxyacetamide], the EC50 in the assay with Phytophthora cinnamomi is > 20 µg/mL; in the assay with Pythium ultimum (descending test concentrations, 5-fold dilutions typically down to 0.032 ppm, read-out: Pythium ultimum (EC50)), > 20 µg/mL.
